Measurements as given in patent US11319526B2, “Methods and compositions for making antibodies and antibody derivatives with reduced core fucosylation” (Seagen Inc., priority 2008, dated 2022).
Read-outs that look alike come from different tables or passages of the source.

How the values were obtained:
[1] = tested on: antibody core fucosylation in CHO DG44 cell line producing h1F6; assay: Effect of fucose analogs on antibody core fucosylation (h1F6 from CHO DG44 culture); format: cell-based, Chinese hamster; details: day 5; for inhibition at 50 µM: 50 μM fucose analog
Method: Media was supplemented with insulin like growth factor (IGF), penicillin, streptomycin and either 1 mM or 50 μM of the fucose analog (prepared as described supra). On day 5 post inoculation, the culture was centrifuged at 13000 RPM for 5 minutes to pellet cells; antibodies were then purified from supernatant.
(§1) Antibody purification was performed by applying the conditioned media to protein A resin pre-equilibrated with 1× phosphate buffered saline (PBS), pH 7.4. After washing resin with 20 resin bed volumes of 1×PBS, antibodies were eluted with 5 resin bed volumes of Immunopure IgG elution buffer (Pierce Biotechnology, Rockford, Ill.). A 10% volume of 1M tris pH 8.0 was added to neutralize the eluted fraction.

[2] = tested on: CHO DG44 cell line producing h1F6; assay: Incorporation of fucose analogs into antibodies (h1F6 from CHO DG44 culture); format: cell-based, Chinese hamster
Method: The effects of fucose analogs on antibody core fucosylation were tested at concentrations of […] and 1 mM as follows: A CHO DG44 cell line producing a humanized IgG1 anti-CD70 monoclonal antibody, h1F6 (see International Patent Publication WO 06/113909) was cultured at 7.5×10^5 cells per mL in 2 mLs of CHO culture media at 37°, 5% CO2 and shaking at 100 RPM in a 6 well tissue culture plate. Media was supplemented with insulin like growth factor (IGF), penicillin, streptomycin and either 1 mM or 50 μM of the fucose analog (prepared as described supra). On day 5 post inoculation, the culture was centrifuged at 13000 RPM for 5 minutes to pellet cells; antibodies were then purified from supernatant.
as §1, with “fraction. The amount of non-core fucosylated antibody produced was determined as described in Example 7.” for “fraction.”
Certain other fucose analogs were tested for their ability to be incorporated into antibodies. These fucose analogs were tested at concentrations of 50 μM and 1 mM using the methodology as described above and in Example 7.

[3] = Cricetulus griseus, CHO-DG44, 120 h, Table 1, inhibition of core fucosylation of h1F6, read-out: Inhibition at 50 μM
[4] = Cricetulus griseus, CHO-DG44, 120 h, Table 1, 1 mM fucose analog, ND = non-core fucosylated antibody not detected due to poor antibody production or inhibition of cell growth
[5] = Cricetulus griseus, CHO-DG44, 120 h, Table 2, read-out: Inhibition at 50 μM
[6] = Cricetulus griseus, CHO-DG44, 120 h, Table 2, 1 mM fucose analog

For `CC(=O)O[C@H]([C@H](OC(C)=O)[C@H](CBr)OC(C)=O)[C@@H](C=O)OC(C)=O` [6-bromo-fucose tetraacetate, 6-bromofucose tetraacetate], the inhibition at 50 µM [1, 3] was 50%, the inhibition at 1000 µM [1, 4] was 80% and the “% Incorporation” value ([2]; 50 uM) was roughly 50%. The “% Incorporation” value ([2]; 1 mM) was “(50 uM; 20% at 1 mM)”.

`C#CC[C@@H]1OC(OC(C)=O)[C@@H](OC(C)=O)[C@H](OC(C)=O)[C@@H]1OC(C)=O` (stereo partly drawn) [propargyl fucose tetraacetate, (3S,4R,5R,6S)-6-(prop-2-ynyl)-tetrahydro-2H-pyran-2,3,4,5-tetrayl tetraacetate] was tested, and the inhibition at 50 µM [1, 3] was roughly 10%, the inhibition at 1000 µM [1, 4] was 10 to 20% and the “% Incorporation” value ([2]; 1 mM) was 80% (1 mM).

`CC#CC(OC(C)=O)[C@@H](OC(C)=O)[C@@H](OC(C)=O)[C@@H](C=O)OC(C)=O` (some centres unmarked) [5-propynyl fucose tetraacetate, 5-propynylarabinose tetraacetate] was tested, and the inhibition at 50 µM [1, 3] was 50% and the inhibition at 1000 µM [1, 4] was greater than 80%.

Molecule `CC(=O)OC1OC(C#N)[C@@H](OC(C)=O)[C@@H](OC(C)=O)[C@@H]1OC(C)=O` (some centres unmarked) [5-cyanoarabinopyranose tetraacetate] has an inhibition at 50 µM [1, 3] of 20%.

`C#C[C@@H]1OC(OC(=O)c2cccnc2)[C@@H](OC(=O)c2cccnc2)[C@H](OC(=O)c2cccnc2)[C@@H]1OC(=O)c1cccnc1` (stereo partly drawn) [Alkynyl fucose pemicotinate, (3S,4R,5R,6S)-6-ethynyl-tetrahydro-2H-pyran-2,3,4,5-tetrayl Tetranicotinate] showed an inhibition at 50 µM [1, 3] greater than 80% and an inhibition at 1000 µM [1, 4] greater than 80%.

`CC(=O)OC1O[C@@H](C)[C@@H](OC(C)=O)[C@@H](OC(C)=O)[C@@H]1F` (stereo partly drawn) [2-deoxy-2-fluorofucose peracetate, (3S,4R,5R,6S)-3-fluoro-6-methyl-tetrahydro-2H-pyran-2,4,5-triyl Triacetate] was tested, and the inhibition at 50 µM [1, 5] was greater than 80% and the inhibition at 1000 µM [1, 6] was greater than 80%.

With `C#C[C@H]1OC(OC(=O)c2ccncc2)[C@@H](OC(=O)c2ccncc2)[C@H](OC(=O)c2ccncc2)[C@@H]1OC(=O)c1ccncc1` (stereo partly drawn) [Alkynyl fucose perisonicotinate, (3S,4R,5R,6R)-6-ethynyl-tetrahydro-2H-pyran-2,3,4,5-tetrayl Tetraisonicotinate] the inhibition at 50 µM [1, 3] was greater than 80% and the inhibition at 1000 µM [1, 4] was greater than 80%.

For `CC(=O)OC1O[C@@H](C(F)F)[C@@H](OC(C)=O)[C@@H](OC(C)=O)[C@@H]1OC(C)=O` (stereo partly drawn) [6,6-difluorofucose tetraacetate, (3S,4R,5S,6R)-6-(difluoromethyl)tetrahydro-2H-pyran-2,3,4,5-tetrayl Tetraacetate], the inhibition at 50 µM [1, 5] was greater than 80% and the inhibition at 1000 µM [1, 6] was greater than 80%.

`CC(=O)OC1O[C@@H](C)[C@@H](OC(C)=O)[C@@H](OC(C)=O)[C@@H]1Cl` (stereo partly drawn) [2-deoxy-2-chlorofucose triacetate, L-2-deoxy-2-chlorofucopyranose-1,3,4-triacetate] was tested, and the inhibition at 50 µM [1, 5] was 17% and the inhibition at 1000 µM [1, 6] was greater than 80%.

Work on `CC(=O)OC1O[C@@H]([C@]2(C)CO2)[C@@H](OC(C)=O)[C@@H](OC(C)=O)[C@@H]1OC(C)=O` (stereo partly drawn) [5-methyloxiran-arabinose tetraacetate, (3S,4R,5S,6R)-6-((S)-2-methyloxiran-2-yl)-tetrahydro-2H-pyran-2,3,4,5-tetrayl tetraacetate] yielded an inhibition at 50 µM [1, 3] of roughly 0% and an inhibition at 1000 µM [1, 4] of 35 to 40%.

`CC(=O)OC1C(C)OC(F)C(F)C1OC(C)=O` (centres unmarked) [1,2-difluoro-1,2-didexoy fucose peracetate] was tested, and the “inhibition at 50 µM” value ([1]; Table 2) was greater than 80% and the “Inhibition at 1 mM” value ([1]; Table 2, 1 mM fucose analog) was greater than 80%.

`CC(=O)O[C@@H]1[C@H](C)O[C@@H](OC(C)=O)C(F)(F)[C@@H]1OC(C)=O` [(2S,4R,5R,6S)-3,3-difluoro-6-methyl-tetrahydro-2H-pyran-2,4,5-triyl Triacetate] gave an inhibition at 50 µM [1, 5] of 0% and an inhibition at 1000 µM [1, 6] of 64%.

With `C#C[C@@H]1OC(OC(=O)CCOCCOC)[C@@H](OC(=O)CCOCCOC)[C@H](OC(=O)CCOCCOC)[C@@H]1OC(=O)CCOCCOC` (stereo partly drawn) [Alkynyl fucose per-PEG ester, (3S,4R,5R,6S)-6-ethynyl-tetrahydro-2H-pyran-2,3,4,5-tetrayl tetrakis(3-(2-methoxyethoxy)propanoate)] the inhibition at 50 µM [1, 3] was greater than 80% and the inhibition at 1000 µM [1, 4] was greater than 80%.

`CC(=O)O[C@H]([C@H](OC(C)=O)[C@H](CI)OC(C)=O)[C@@H](C=O)OC(C)=O` [6-iodo-fucose tetraacetate, 6-iodofucose tetraacetate] gave an inhibition at 50 µM [1, 3] of 3% and an inhibition at 1000 µM [1, 4] of 30%.

`C[C@H](O)[C@@H](O)[C@@H](O)[C@H](F)C=O` [2-deoxy-2-fluorofucose] was tested, and the inhibition at 50 µM [1, 5] was greater than 80% and the inhibition at 1000 µM [1, 6] was greater than 80%.
